Measured values taken from ChEMBL document CHEMBL1201862, “PubChem BioAssay data set” (2004).
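Five concentrations, 48 hours, 96-well plates. Abbreviation: GI50, concentration required for 50% inhibition of growth.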 Active and inactive are the calls of the source. Cut-off read from the data, not from the text of the source: active = GI50 up to about 1.1 µM and inactive = higher.

How the values were obtained:
Experiment in all cases: NCI anticancer screen, dose series, 48 h
786-0 = test system: 786-0
A498 = test system: A498
A549 = test system: A549
ACHN = test system: ACHN
BT-549 = test system: BT-549
CAKI-1 = test system: CAKI-1
CCRF-CEM = test system: CCRF-CEM
COLO 205 = test system: COLO 205
DLD-1 = test system: DLD-1
DMS-114 = test system: DMS-114
DMS-273 = test system: DMS-273
DU-145 = test system: DU-145
EKVX = test system: EKVX
HCC 2998 = test system: HCC 2998
HCT-116 = test system: HCT-116
HCT-15 = test system: HCT-15
HL-60 = test system: HL-60
HOP-18 = test system: HOP-18
HOP-62 = test system: HOP-62
HOP-92 = test system: HOP-92
HT-29 = test system: HT-29
Hs-578T = test system: Hs-578T
IGROV-1 = test system: IGROV-1
K562 = test system: K562
KM-20L2 = test system: KM-20L2
KM12 = test system: KM12
LOX IMVI = test system: LOX IMVI
LXFL 529 = test system: LXFL 529
M14 = test system: M14
M19-MEL = test system: M19-MEL
MCF7 = test system: MCF7
MDA-MB-231 = test system: MDA-MB-231
MDA-MB-435 = test system: MDA-MB-435
MDA-N = test system: MDA-N
MOLT-4 = test system: MOLT-4
Malme-3M = test system: Malme-3M
NCI-H226 = test system: NCI-H226
NCI-H23 = test system: NCI-H23
NCI-H460 = test system: NCI-H460
NCI-H522 = test system: NCI-H522
NCI/ADR-RES = test system: NCI/ADR-RES
OVCAR-3 = test system: OVCAR-3
OVCAR-4 = test system: OVCAR-4
OVCAR-5 = test system: OVCAR-5
OVCAR-8 = test system: OVCAR-8
PC-3 = test system: PC-3
RPMI-8226 = test system: RPMI-8226
RXF 393 = test system: RXF 393
RXF 631 = test system: RXF 631
SF-268 = test system: SF-268
SF-295 = test system: SF-295
SF-539 = test system: SF-539
SK-MEL-28 = test system: SK-MEL-28
SK-MEL-2 = test system: SK-MEL-2
SK-MEL-5 = test system: SK-MEL-5
SK-OV-3 = test system: SK-OV-3
SN12C = test system: SN12C
SNB-19 = test system: SNB-19
SNB-75 = test system: SNB-75
SNB-78 = test system: SNB-78
SW-620 = test system: SW-620
T47D = test system: T47D
TK-10 = test system: TK-10
U-251 = test system: U-251
UACC-257 = test system: UACC-257
UACC-62 = test system: UACC-62
UO-31 = test system: UO-31
XF498 = test system: XF498

## CNCCCNc1c2ccccc2nc2cccc([N+](=O)[O-])c12
786-0
  GI50: 3.23 nM (active)
A498
  GI50: 2.9 nM (active)
A549
  GI50: 1.87 nM (active)
ACHN
  GI50: 2.51 nM (active)
BT-549
  GI50: 2.3 nM (active)
CAKI-1
  GI50: 7.53 nM (active)
CCRF-CEM
  GI50: 9.86 nM (active)
COLO 205
  GI50: 1.5 nM (active)
DLD-1
  GI50: 3.03 nM (active)
DMS-114
  GI50: 2.21 nM (active)
DMS-273
  GI50: 15.2 nM (active)
DU-145
  GI50: 3.78 nM (active)
EKVX
  GI50: 8.09 nM (active)
HCC 2998
  GI50: 4.45 nM (active)
HCT-116
  GI50: 2.42 nM (active)
HCT-15
  GI50: 9.57 nM
HL-60
  GI50: 10 nM (active)
HOP-18
  GI50: 23.7 nM (active)
HOP-62
  GI50: 3.73 nM (active)
HOP-92
  GI50: 1.83 nM (active)
HT-29
  GI50: 3.37 nM (active)
Hs-578T
  GI50: 2.99 nM (active)
IGROV-1
  GI50: 7.26 nM (active)
K562
  GI50: 4.07 nM (active)
KM-20L2
  GI50: 4.16 nM (active)
KM12
  GI50: 6.4 nM (active)
LOX IMVI
  GI50: 6.04 nM (active)
LXFL 529
  GI50: 6.65 nM (active)
M14
  GI50: 4.33 nM (active)
M19-MEL
  GI50: 3.87 nM (active)
MCF7
  GI50: 1.43 nM (active)
MDA-MB-231
  GI50: 1.58 nM (active)
MDA-MB-435
  GI50: 1.66 nM (active)
MDA-N
  GI50: 1.6 nM (active)
MOLT-4
  GI50: 2.43 nM (active)
Malme-3M
  GI50: 4.3 nM (active)
NCI-H226
  GI50: 18 nM (active)
NCI-H23
  GI50: 1.93 nM (active)
NCI-H460
  GI50: 0.47 nM (active)
NCI-H522
  GI50: 0.449 nM (active)
NCI/ADR-RES
  GI50: 8.61 nM (active)
OVCAR-3
  GI50: 4.49 nM (active)
OVCAR-4
  GI50: 1.74 nM (active)
OVCAR-5
  GI50: 4.59 nM (active)
OVCAR-8
  GI50: 3.72 nM (active)
PC-3
  GI50: 1.82 nM (active)
RPMI-8226
  GI50: 3.48 nM (active)
RXF 393
  GI50: 0.346 nM (active)
RXF 631
  GI50: 28.6 nM (active)
SF-268
  GI50: 2.25 nM (active)
SF-295
  GI50: 3.4 nM (active)
SF-539
  GI50: 6.34 nM (active)
SK-MEL-28
  GI50: 10.9 nM (active)
SK-MEL-2
  GI50: 3.32 nM (active)
SK-MEL-5
  GI50: 5.07 nM (active)
SK-OV-3
  GI50: 10.3 nM (active)
SN12C
  GI50: 5.61 nM (active)
SNB-19
  GI50: 7.69 nM (active)
SNB-75
  GI50: 4.38 nM (active)
SNB-78
  GI50: 2.33 nM (active)
SW-620
  GI50: 3.21 nM (active)
T47D
  GI50: 2.29 nM (active)
TK-10
  GI50: 6.75 nM (active)
U-251
  GI50: 3.44 nM (active)
UACC-257
  GI50: 18.9 nM (active)
UACC-62
  GI50: 4.68 nM (active)
UO-31
  GI50: 8.45 nM (active)
XF498
  GI50: 2.47 nM (active)
